Test results published in patent US20080159995A1, “TREATMENT OF FIBROSIS” (priority 2006, published 2008).

Key:
[1] = cited from earlier work
[2] = system: Transforming Growth Factor (TGF)-β-Connective Tissue Growth Factor (CTGF) interactions via a Rho signalling pathway; settings: recent studies, refs 1 and 2; cited from earlier work
[3] = system: A549 alveolar epithelial cells; assay: alveolar epithelial cell wound repair model (in vitro epithelial wound-healing assay); type: cell-based, human; settings: mechanically wounded monolayer, FIG. 4
Experimental: In the present studies an alveolar epithelial cells wound repair model was employed. […] Closure of this wound was monitored over 24 hours following treatment.
The wound healing assays were performed utilising A549 alveolar epithelial cells. The epithelial repair activity was determined using an in-vitro epithelial wound-healing assay as described in Example 1 (Geiser T et al. Am J Respir Crit. Care Med. 2001; 163: 1384-1388) using human A549 alveolar epithelial-like cells (American Type Culture Collection, Rockville, Md.). Briefly, A549 epithelial cells were cultured to confluency in 12-well plates for 48 hours in minimal essential medium (MEM) containing 10% fetal bovine serum and then mechanically wounded with a pipette tip. Concentrated BALF from each patient was added to the wounded epithelial monolayers (experiments performed in triplicates) and the area of the wound was measured over a time period of 24 hours.

| Compound | solubility in acetonitrile ([1]; acetonitrile) | solubility in ethanol ([1]; ethanol) | solubility in methanol ([1]; methanol) | solubility in water ([1]; water) | anti-fibrotic potential (TGF-β-CTGF interactions, pro-fibrotic differentiation) [2] | wound closure [3] |
| --- | --- | --- | --- | --- | --- | --- |
| CCC(C)C(=O)OC1CC(C)C=C2C=CC(C)C(CCC3CC(O)CC(=O)O3)C21 (stereo not drawn) [Lovastatin, [8-[2-(4-hydroxy-6-oxo-oxan-2-yl)ethyl]-3,7-dimethyl-1,2,3,7,8,8a-hexahydronaphthalen-1-yl]2-methylbutanoate] | sparingly soluble | sparingly soluble | sparingly soluble | insoluble | – | – |
| CCC(C)(C)C(=O)O[C@H]1C[C@@H](C)C=C2C=C[C@@H](C)[C@H](CC[C@@H]3C[C@@H](O)CC(=O)O3)[C@H]21 [simvastatin, [(1S,3R,7R,8S,8aR)-8-[2-[(2R,4R)-4-hydroxy-6-oxo-oxan-2-yl]ethyl]-3,7-dimethyl-1,2,3,7,8,8a-hexahydronaphthalen-1 yl]2,2-dimethylbutanoate] | – | – | – | – | over-riding Transforming Growth Factor (TGF)-β-Connective Tissue Growth Factor (CTGF) interactions | improves wound closure |
